Data as given in PMC4257840 (Journal of Medicinal Chemistry, 2014).

What was measured:
Format in all cases: biochemical
[1] = target: T1, Human recombinant ADAM-17 (Homo sapiens, UniProt P78536); experiment: Protease counter-screening: ADAM-17/TACE
T1 construct: host or cells: Sf21 insect cells
Method: (§1) Appendix 7. Protease Counter -Screening
(§2) Protease counter-screeni ng was performed using the methods described below. Initial screening was conducted in duplicate using a single test substance concentration of 10 µ M .
(§3) Additional assays were conducted in replicate for selected pairin gs of test s ubstance and enz yme in order to enable the determination of IC50 values using conventional procedures.
(§4) Determination of K i was made using the Batch K i program (Biokin Ltd, Pullman, WA) to derive values from the Morrison equation: […]
(§5) MMP-9: Human recombinant MMP-9 proenz yme ex pressed in mammalian cells was activated with APMA for 60 min at 37 °C. […] The amount of MCA-P LG formed was read spectrofluorimetricall y at 340 nm/400 nm.
(§6) ADAM-17/TACE: Human recombinant ADAM-17 expressed in Sf21 insect cells was used as enz yme sour ce. […] T he amount of MCA-P LAQA formed w as read spectro fluorimetricall y at 340 nm/400 nm.
(§7) Angiotensin converting enzyme: Test compound or vehicle was pre- incubated in modified HEPES buffer pH 7.5 for 15 min at 25 °C with 31 mU/mL angiotensin converting enz yme from rabbit lung. […] The amount of substrate remaining was read spectrophotometricall y at 340 nm and used to deri ve the extent of reaction and its inhibition. […]

[2] = target: T2, Factor Xa from human plasma (Homo sapiens, UniProt P00742); experiment: Protease counter-screening: Factor Xa
T2 construct: containing 0.4 nM Factor Xa from human plasma; from tissue; host or cells: human plasma
T2 sequence (P00742 235-488 limits assumed): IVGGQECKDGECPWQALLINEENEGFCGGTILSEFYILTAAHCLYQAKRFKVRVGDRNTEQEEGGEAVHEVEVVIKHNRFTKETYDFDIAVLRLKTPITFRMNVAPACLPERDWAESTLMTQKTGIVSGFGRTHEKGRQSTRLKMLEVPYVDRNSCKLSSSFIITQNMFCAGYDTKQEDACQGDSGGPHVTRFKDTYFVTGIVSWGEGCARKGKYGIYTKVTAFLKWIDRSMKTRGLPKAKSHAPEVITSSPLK
T2 sequence (P00742 41-179 limits assumed): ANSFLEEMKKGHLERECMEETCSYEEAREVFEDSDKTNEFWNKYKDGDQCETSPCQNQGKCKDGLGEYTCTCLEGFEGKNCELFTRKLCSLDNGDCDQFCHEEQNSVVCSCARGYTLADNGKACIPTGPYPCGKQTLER
Method: as §1, §2, §3, §4
(§8) Where [E ] is the active enz yme concentration, Kiapp is the apparent inhibition const ant, v 0 is the control velocit y in the absence of inhibitors, vb is the background velocity, v is the initial reaction velocit y in the presence of inhibitor, and I is the inhibitor concentration.Thence:
Where [S ] is the substrate concentration and KM is the Michealis constant. […]
Test compound or vehicle was pre- incubated with 600 […]
The reaction was […]
initiated by addition of 1 µM N-CH3-SO2-D-FGR-pNA for another 120 min incubation period.
The amount of pNA formed was read spectrophotometricall y at 405 nm.
Factor Xa: Test compound or vehicle was pre -incubated for 15 min at 25 °C in modified 50 mM Tris-HCl buffer pH 7.6 containing 0.4 nM Factor Xa from human plasma. The reaction was initiated by addition of 0.3 mM N-a-Z-D-RGR-pNA for another 60 min incubation period. […]

Human liver cathepsin L = target: T3, Human liver cathepsin L (Homo sapiens, UniProt P07711); experiment: Protease counter-screening: Cathepsin L
T3 construct: Human liver cathepsin L was used as the; from tissue; host or cells: human liver
T3 sequence (P07711 114-333): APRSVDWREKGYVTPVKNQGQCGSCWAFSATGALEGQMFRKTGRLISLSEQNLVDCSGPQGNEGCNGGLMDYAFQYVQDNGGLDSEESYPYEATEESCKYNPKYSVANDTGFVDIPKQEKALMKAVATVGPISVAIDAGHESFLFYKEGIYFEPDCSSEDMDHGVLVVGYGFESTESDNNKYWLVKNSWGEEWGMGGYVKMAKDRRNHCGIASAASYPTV

[3] = target: T4, cathepsin H purified from human liver (Homo sapiens, UniProt P09668); experiment: Protease counter-screening: Cathepsin H
T4 construct: Tests were performed using cathepsin H purified from human liver; from tissue; host or cells: human liver
T4 sequence (P09668 98-335): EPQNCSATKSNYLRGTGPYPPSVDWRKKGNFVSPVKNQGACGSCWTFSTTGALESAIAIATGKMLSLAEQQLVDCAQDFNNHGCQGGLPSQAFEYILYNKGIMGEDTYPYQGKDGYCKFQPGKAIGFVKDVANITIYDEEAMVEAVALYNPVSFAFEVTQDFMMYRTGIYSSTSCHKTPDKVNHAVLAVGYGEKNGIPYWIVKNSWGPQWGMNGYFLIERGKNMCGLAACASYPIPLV
Method: Cathep sin H: Tests were performed using cathepsin H purified from human liver. Test compound or vehicle was pre -incubated with 3.3 mU/mL enz yme in sodium acetate buffer pH 5.5 for 15 min at 25 °C. The reaction was initiated by addition of 20 µM L-RR- AMC for another

Cathepsin D = target: T5, Cathepsin D (Homo sapiens, UniProt P07339); experiment: Protease counter-screening: Cathepsin D
T5 construct: purified from human li ver; from tissue; host or cells: human liver
T5 sequence (P07339 65-412): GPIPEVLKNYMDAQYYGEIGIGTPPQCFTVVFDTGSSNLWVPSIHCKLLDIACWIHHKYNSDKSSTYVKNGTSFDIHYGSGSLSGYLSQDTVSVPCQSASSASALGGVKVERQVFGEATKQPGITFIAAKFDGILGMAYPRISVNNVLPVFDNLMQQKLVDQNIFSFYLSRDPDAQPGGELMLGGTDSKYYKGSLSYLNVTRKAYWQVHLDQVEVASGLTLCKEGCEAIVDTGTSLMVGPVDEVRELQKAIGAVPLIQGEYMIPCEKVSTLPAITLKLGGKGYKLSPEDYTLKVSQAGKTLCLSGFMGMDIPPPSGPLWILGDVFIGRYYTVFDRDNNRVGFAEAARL
Method: as §1, §2, §3, §4, §8
Where [S ] is the substrate concentration and KM is the Michealis constant.
Caspase 1: Activity against human recombinant caspase 1 expressed in E. coli was tested using Ac-YVAD- AMC as the substrate. Test compound or vehicle was pre- incubated with 600 […]
Cathep sin D: Tests were performed using enz ym e purified from human li ver. Test compound or vehicle was pre- incubated with 190 mU/mL enz yme in modified acetate buffer pH 4.0 for 15 min at 37 °C. […]
The amount of MCA-P LG formed was measured spectrofluorimetricall y at 340 nm/400 nm. […]

[4] = target: T6, angiotensin converting enzyme from rabbit lung (Oryctolagus cuniculus, UniProt P12822); experiment: Protease counter-screening: Angiotensin converting enzyme
T6 construct: rabbit lung; from tissue; host or cells: rabbit lung
T6 sequence (P12822 34-1310): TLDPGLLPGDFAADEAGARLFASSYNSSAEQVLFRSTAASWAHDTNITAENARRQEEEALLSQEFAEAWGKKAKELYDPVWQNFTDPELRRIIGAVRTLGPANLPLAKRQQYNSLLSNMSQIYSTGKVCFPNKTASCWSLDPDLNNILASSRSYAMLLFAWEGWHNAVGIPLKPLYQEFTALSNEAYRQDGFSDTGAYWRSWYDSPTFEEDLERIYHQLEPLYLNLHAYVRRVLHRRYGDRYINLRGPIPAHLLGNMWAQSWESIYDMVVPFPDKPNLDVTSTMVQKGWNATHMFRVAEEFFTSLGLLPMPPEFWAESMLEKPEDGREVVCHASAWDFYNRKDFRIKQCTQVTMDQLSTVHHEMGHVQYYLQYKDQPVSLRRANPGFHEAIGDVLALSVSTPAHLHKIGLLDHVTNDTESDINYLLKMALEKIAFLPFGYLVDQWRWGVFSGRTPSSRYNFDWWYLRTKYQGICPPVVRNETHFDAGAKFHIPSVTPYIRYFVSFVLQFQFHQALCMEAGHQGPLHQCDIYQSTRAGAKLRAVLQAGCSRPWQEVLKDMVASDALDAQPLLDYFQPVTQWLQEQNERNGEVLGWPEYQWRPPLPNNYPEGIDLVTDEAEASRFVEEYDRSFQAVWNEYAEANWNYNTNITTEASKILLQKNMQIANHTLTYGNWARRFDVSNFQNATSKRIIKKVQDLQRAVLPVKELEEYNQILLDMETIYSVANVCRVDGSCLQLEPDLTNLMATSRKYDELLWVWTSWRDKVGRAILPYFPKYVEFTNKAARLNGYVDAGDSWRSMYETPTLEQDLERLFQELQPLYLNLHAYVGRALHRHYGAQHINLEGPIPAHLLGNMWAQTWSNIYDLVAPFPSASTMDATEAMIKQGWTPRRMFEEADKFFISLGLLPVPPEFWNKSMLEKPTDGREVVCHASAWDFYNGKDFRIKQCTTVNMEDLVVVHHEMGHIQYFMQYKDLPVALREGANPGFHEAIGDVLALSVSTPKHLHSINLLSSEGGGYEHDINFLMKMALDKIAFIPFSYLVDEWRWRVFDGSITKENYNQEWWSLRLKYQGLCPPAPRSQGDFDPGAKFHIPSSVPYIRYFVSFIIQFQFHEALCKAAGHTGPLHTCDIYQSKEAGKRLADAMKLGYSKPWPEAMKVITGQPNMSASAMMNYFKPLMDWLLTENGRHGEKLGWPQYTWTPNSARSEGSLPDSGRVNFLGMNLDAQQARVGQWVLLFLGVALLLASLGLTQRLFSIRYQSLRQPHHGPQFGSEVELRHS
Method: as §1, §2, §3, §4, §5, §6, §7

T1 sequence (P78536 215-824): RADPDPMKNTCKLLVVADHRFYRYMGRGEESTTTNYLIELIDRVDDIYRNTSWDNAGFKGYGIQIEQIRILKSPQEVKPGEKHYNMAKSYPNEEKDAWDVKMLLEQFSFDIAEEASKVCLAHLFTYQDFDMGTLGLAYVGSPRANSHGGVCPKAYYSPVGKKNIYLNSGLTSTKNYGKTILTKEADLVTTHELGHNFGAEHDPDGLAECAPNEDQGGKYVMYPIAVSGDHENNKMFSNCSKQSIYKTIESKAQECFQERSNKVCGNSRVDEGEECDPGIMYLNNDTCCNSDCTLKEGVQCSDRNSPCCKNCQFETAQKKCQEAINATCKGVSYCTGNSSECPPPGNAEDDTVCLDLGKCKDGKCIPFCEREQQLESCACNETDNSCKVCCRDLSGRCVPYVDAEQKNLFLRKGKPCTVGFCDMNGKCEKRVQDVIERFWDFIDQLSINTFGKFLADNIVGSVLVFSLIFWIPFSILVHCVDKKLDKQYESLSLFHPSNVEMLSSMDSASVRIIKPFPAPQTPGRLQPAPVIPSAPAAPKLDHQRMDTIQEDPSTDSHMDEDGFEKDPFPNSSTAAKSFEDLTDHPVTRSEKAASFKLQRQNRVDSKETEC

In the case of `CC(C)[C@H](NC(=O)[C@H](C)NC(=O)[C@@H](NC(=O)c1ccccc1)C(C)(C)C)C(=O)C(=O)NCc1ccccc1` [Compound 38, N-{(S)-1-[(S)-1-((S)-1-Benzylaminooxalyl-2-methyl-propylcarbamoyl)-ethylcarbamoyl]-2,2-dimethyl-propyl}-benzamide], the inhibition at 10 µM [1] is reported as 0%, the inhibition at 10 µM [2] is reported as 7% and the inhibition at 10 µM (Human liver cathepsin L) is reported as 34%. For the same compound, the inhibition at 10 µM [3] was 13%, the inhibition at 10 µM (Cathepsin D) was 2% and the inhibition at 10 µM [4] was 0%.
